In patent US20150218638A1, “METHODS FOR ASSESSMENT OF PEPTIDE-SPECIFIC IMMUNITY” (priority 2012, published 2015):

System: heparinized whole blood
Test: Ex vivo induction of immune-function-related mRNA in heparinized whole blood, real time PCR
Format: cell-based
Details: 37° C., 4 hours, vs PBS

## leucoagglutinin [PHA-L]
  CCL4 mRNA induction: induced
  CTLA4 mRNA induction: induced
  CXCL3 mRNA induction: induced
  CXCL10 mRNA induction: induced
  GMCSF mRNA induction: induced
  IFNG mRNA induction: induced
  IL4 mRNA induction: induced
  IL10 mRNA induction: induced
  TNFSF2 mRNA induction: induced
  beta actin (ACTB) mRNA induction (control housekeeping gene): not induced
